# Measurements from patent publication US20020137929A1, “1 - (3-heterocyclylphenyl) isothiourea, -isourea, -guanidine and -amidine herbicidal agents” (Intellectual Property Department, BASF Aktiengesellschaft, priority 1998, published 2002).
# Experiments:
# ORYSAT (Rice, Tebonnet) = assay: Preemergence herbicidal evaluation; assay type: in vivo, Oryza sativa, (L.) Tebonnet; conditions: rated 4-5 weeks after treatment
# How it was run: (§1)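 Scores use a 0–9 visual scale covering stand, vigor, malformation, size and chlorosis relative to controls, rated four to five weeks after treatment. Before emergence, soil-planted seeds were sprayed with compound in aqueous acetone at roughly 0.0156–0.500 kg/ha and held in the greenhouse.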
# SETVI (Foxtail, Green) = assay: Preemergence herbicidal evaluation; assay type: in vivo, Setaria viridis; conditions: rated 4-5 weeks after treatment
# How it was run: as §1
# [1] = tested on: SAGPY (Arrowhead (Pygmaea)); assay: Preemergence weed control under flooded paddy conditions; assay type: in vivo, Sagittaria pygmaea; conditions: rated 3-4 weeks after treatment
# How it was run: (§2)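 Using flooded silt loam (water 1.5 to 3 cm deep), seeds sown in the top 0.5 cm were exposed preemergence to compound pipetted into the flood at about 0.0313 to 0.500 kg/ha. Effects were scored 0-9 by eye three to four weeks later.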
# CYPSE (Flatsedge) = assay: as above; assay type: in vivo, Cyperus serotinus; conditions: rated 3-4 weeks after treatment
# How it was run: as §2
# [2] = tested on: TRZAWR (Wheat, Winter, cv Riband); assay: Postemergence herbicidal evaluation; assay type: in vivo, Triticum aestivum; conditions: postemergence
# How it was run: (§3)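 Seedlings grown about two weeks were sprayed at 40 psi with compound dispersed in 50/50 acetone/water plus 0.5% TWEEN 20, at about 0.0156 to 0.500 kg/ha. Plants were kept in the greenhouse and scored 4–5 weeks later on a 0–9 visual scale against untreated controls.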
# MOOVA (Monochoria) = assay: Preemergence weed control under flooded paddy conditions; assay type: in vivo, Monochoria vaginalis; conditions: rated 3-4 weeks after treatment
# How it was run: as §2
# [3] = tested on: GLXMAW (Soybean, Williams); assay: Postemergence herbicidal evaluation; assay type: in vivo, Glycine max, (L.) Merr. cv Williams; conditions: postemergence
# How it was run: as §3
# [4] = tested on: ECHORC (Watergrass (Calif.)); assay: Preemergence weed control under flooded paddy conditions; assay type: in vivo, Echinochloa oryzoides; conditions: rated 3-4 weeks after treatment
# How it was run: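 First, seeds or propagules go into the top 0.5 cm of silt loam; next, water is held 1.5 to 3 cm over the soil; then compound (50/50 acetone/water) is pipetted into it at about 0.0313 to 0.500 kg/ha; finally plants are rated visually 0-9 after three to four weeks.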
# [5] = tested on: SAGPY (Arrowhead (Pygmaea)); assay: Postemergence weed control under flooded paddy conditions; assay type: in vivo, Sagittaria pygmaea; conditions: postemergence weeds, rated 3 to 4 weeks after treatment
# How it was run: (§4)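 Flood-water application, about 0.0313–0.500 kg/ha a.i. in aqueous/acetone 50/50 v/v; water depth 1.5–3 cm throughout. Weeds 3–5 cm, rice 1.5–2.5 leaf. Greenhouse; 0–9 visual rating vs control at 3–4 wk.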
# GALAP (Galium) [6] = assay: Preemergence herbicidal evaluation; assay type: in vivo, Galium aparine; conditions: rated 4-5 weeks after treatment
# How it was run: as §1
# [7] = tested on: ECHORC (Watergrass (Calif.)); assay: Postemergence weed control under flooded paddy conditions; assay type: in vivo, Echinochloa oryzoides; conditions: postemergence weeds, rated 3 to 4 weeks after treatment
# How it was run: as §4
# GALAP (Galium) [8] = assay: Postemergence herbicidal evaluation; assay type: in vivo, Galium aparine; conditions: postemergence
# How it was run: as §3
# AMBEL (Ragweed, Common) = assay: Postemergence herbicidal evaluation; assay type: in vivo, Ambrosia artemisifolia; conditions: postemergence
# How it was run: as §3
# CASOB (Sicklepod) = assay: Postemergence herbicidal evaluation; assay type: in vivo, Cassia obtusifolia; conditions: postemergence
# How it was run: as §3
smiles,measurement,setting,value
"C=CCN1C(=O)C(CC(=O)OC(C)C)SC1=Nc1cc(-n2c(=O)cc(C(F)(F)F)n(C)c2=O)c(F)cc1Cl (centres unmarked) [Compound 66, Isopropyl 3-allyl-2-{{2-chloro-5-[3,6-dihydro-3-methyl-2,6-dioxo-4-(trifluoromethyl)-1(2H)-pyrimidinyl]-4-fluorophenyl}imino}-4-oxo-5-thiazolidineacetate]",Preemergence herbicidal rating ORYSAT,"ORYSAT (Rice, Tebonnet); rate 0.0156 kg/ha",0.0
same,Preemergence herbicidal rating ORYSAT,"ORYSAT (Rice, Tebonnet); rate 0.0313 kg/ha",0.0
same,Preemergence herbicidal rating ORYSAT,"ORYSAT (Rice, Tebonnet); rate 0.0625 kg/ha",0.5
same,Preemergence herbicidal rating ORYSAT,"ORYSAT (Rice, Tebonnet); rate 0.1250 kg/ha",0.5
same,Preemergence herbicidal rating ORYSAT,"ORYSAT (Rice, Tebonnet); rate 0.2500 kg/ha",2.5
same,Preemergence herbicidal rating ORYSAT,"ORYSAT (Rice, Tebonnet); rate 0.5000 kg/ha",8.0
same,Preemergence herbicidal rating SETVI,"SETVI (Foxtail, Green); rate 0.0156 kg/ha",0.0
same,Preemergence herbicidal rating SETVI,"SETVI (Foxtail, Green); rate 0.0313 kg/ha",0.5
same,Preemergence herbicidal rating SETVI,"SETVI (Foxtail, Green); rate 0.0625 kg/ha",0.5
same,Preemergence herbicidal rating SETVI,"SETVI (Foxtail, Green); rate 0.1250 kg/ha",6.0
same,Preemergence herbicidal rating SETVI,"SETVI (Foxtail, Green); rate 0.2500 kg/ha",7.5
same,Preemergence herbicidal rating SETVI,"SETVI (Foxtail, Green); rate 0.5000 kg/ha",9.0
same,SAGPY herbicidal effect rating,[1]; 0.0313 kg/ha,3.0
same,SAGPY herbicidal effect rating,[1]; 0.0625 kg/ha,4.0
same,SAGPY herbicidal effect rating,[1]; 0.1250 kg/ha,4.0
same,SAGPY herbicidal effect rating,[1]; 0.2500 kg/ha,4.0
same,CYPSE herbicidal effect rating,CYPSE (Flatsedge); 0.0313 kg/ha,0.0
same,CYPSE herbicidal effect rating,CYPSE (Flatsedge); 0.0625 kg/ha,0.0
same,CYPSE herbicidal effect rating,CYPSE (Flatsedge); 0.1250 kg/ha,4.0
same,CYPSE herbicidal effect rating,CYPSE (Flatsedge); 0.2500 kg/ha,4.0
same,TRZAWR herbicidal rating,[2]; rate 0.0158 kg/ha,3.5
same,TRZAWR herbicidal rating,[2]; rate 0.0313 kg/ha,7.0
same,TRZAWR herbicidal rating,[2]; rate 0.0625 kg/ha,8.0
same,TRZAWR herbicidal rating,[2]; rate 0.1250 kg/ha,7.5
same,MOOVA herbicidal effect rating,MOOVA (Monochoria); 0.0313 kg/ha,9.0
same,MOOVA herbicidal effect rating,MOOVA (Monochoria); 0.0625 kg/ha,9.0
same,MOOVA herbicidal effect rating,MOOVA (Monochoria); 0.1250 kg/ha,9.0
same,MOOVA herbicidal effect rating,MOOVA (Monochoria); 0.2500 kg/ha,9.0
same,GLXMAW herbicidal rating,[3]; rate 0.0158 kg/ha,7.0
same,GLXMAW herbicidal rating,[3]; rate 0.0313 kg/ha,8.5
same,GLXMAW herbicidal rating,[3]; rate 0.0625 kg/ha,8.5
same,GLXMAW herbicidal rating,[3]; rate 0.1250 kg/ha,9.0
same,ECHORC herbicidal effect rating,[4]; 0.0313 kg/ha,7.0
same,ECHORC herbicidal effect rating,[4]; 0.0625 kg/ha,7.0
same,ECHORC herbicidal effect rating,[4]; 0.1250 kg/ha,9.0
same,ECHORC herbicidal effect rating,[4]; 0.2500 kg/ha,9.0
same,Herbicidal rating SAGPY,[5]; Rate 0.0313 kg/ha,3.0
same,Herbicidal rating SAGPY,[5]; Rate 0.0625 kg/ha,4.0
same,Herbicidal rating SAGPY,[5]; Rate 0.1250 kg/ha,4.0
same,Herbicidal rating SAGPY,[5]; Rate 0.2500 kg/ha,4.0
same,Preemergence herbicidal rating GALAP,GALAP (Galium) [6]; rate 0.0156 kg/ha,0.0
same,Preemergence herbicidal rating GALAP,GALAP (Galium) [6]; rate 0.0313 kg/ha,0.0
same,Preemergence herbicidal rating GALAP,GALAP (Galium) [6]; rate 0.0625 kg/ha,0.0
same,Preemergence herbicidal rating GALAP,GALAP (Galium) [6]; rate 0.1250 kg/ha,3.5
same,Preemergence herbicidal rating GALAP,GALAP (Galium) [6]; rate 0.2500 kg/ha,8.0
same,Preemergence herbicidal rating GALAP,GALAP (Galium) [6]; rate 0.5000 kg/ha,9.0
same,Herbicidal rating ECHORC,[7]; Rate 0.0313 kg/ha,7.0
same,Herbicidal rating ECHORC,[7]; Rate 0.0625 kg/ha,7.0
same,Herbicidal rating ECHORC,[7]; Rate 0.1250 kg/ha,9.0
same,Herbicidal rating ECHORC,[7]; Rate 0.2500 kg/ha,9.0
same,GALAP herbicidal rating,GALAP (Galium) [8]; rate 0.0158 kg/ha,2.0
same,GALAP herbicidal rating,GALAP (Galium) [8]; rate 0.0313 kg/ha,3.0
same,GALAP herbicidal rating,GALAP (Galium) [8]; rate 0.0625 kg/ha,4.0
same,GALAP herbicidal rating,GALAP (Galium) [8]; rate 0.1250 kg/ha,9.0
same,AMBEL herbicidal rating,"AMBEL (Ragweed, Common); rate 0.0158 kg/ha",6.0
same,AMBEL herbicidal rating,"AMBEL (Ragweed, Common); rate 0.0313 kg/ha",9.0
same,AMBEL herbicidal rating,"AMBEL (Ragweed, Common); rate 0.0625 kg/ha",9.0
same,AMBEL herbicidal rating,"AMBEL (Ragweed, Common); rate 0.1250 kg/ha",9.0
same,CASOB herbicidal rating,CASOB (Sicklepod); rate 0.0158 kg/ha,0.0
same,CASOB herbicidal rating,CASOB (Sicklepod); rate 0.0313 kg/ha,0.0
same,CASOB herbicidal rating,CASOB (Sicklepod); rate 0.0625 kg/ha,3.0
same,CASOB herbicidal rating,CASOB (Sicklepod); rate 0.1250 kg/ha,6.0
